Common to all, as to type: cell-based
A short description of experiment [1]: Displacement of [3H]epibatidine from Aplysia californica AchBP A107M, M116L mutant expressed in HEK293S cells by scintillation proximity assay.
Experiment [2] is described as follows: Displacement of [3H]epibatidine from Aplysia californica AchBP V108M, M116L, Y195F mutant expressed in HEK293S cells by scintillation proximity assay. In general terms: In a radioligand displacement assay an active substance lowers the binding of a labelled ligand.
Experiment [3] is described as follows: Displacement of [3H]epibatidine from Aplysia californica AchBP S114M mutant expressed in HEK293S cells by scintillation proximity assay.
A short description of experiment [4]: Displacement of [3H]epibatidine from Aplysia californica AchBP V108M mutant expressed in HEK293S cells by scintillation proximity assay.
Experiment [5] is described as follows: Displacement of [3H]epibatidine from Aplysia californica AchBP M116L,Y195F mutant expressed in HEK293S cells by scintillation proximity assay.
Experiment [6] in a line: Displacement of [3H]epibatidine from Aplysia californica AchBP Y195F mutant expressed in HEK293S cells by scintillation proximity assay.
Experiment [7] is described as follows: Displacement of [3H]epibatidine from Aplysia californica AchBP I118M, M116L, Y195F mutant expressed in HEK293S cells by scintillation proximity assay.
A short description of experiment [8]: Displacement of [3H]epibatidine from Aplysia californica AchBP A107M, M116L, Y195F mutant expressed in HEK293S cells by scintillation proximity assay.
A short description of experiment [9]: Displacement of [3H]epibatidine from Aplysia californica AchBP A107M mutant expressed in HEK293S cells by scintillation proximity assay.
The nature of experiment [10]: Displacement of [3H]epibatidine from Aplysia californica AchBP I106M, M116L mutant expressed in HEK293S cells by scintillation proximity assay.
Experiment [11] is described as follows: Displacement of [3H]epibatidine from Aplysia californica AchBP M116Y mutant expressed in HEK293S cells by scintillation proximity assay.
Experiment [12] is described as follows: Displacement of [3H]epibatidine from Aplysia californica AchBP S114M, M116L mutant expressed in HEK293S cells by scintillation proximity assay.
Experiment [13] can be described thus: Displacement of [3H]epibatidine from Aplysia californica AchBP M116L mutant expressed in HEK293S cells by scintillation proximity assay.
A short description of experiment [14]: Displacement of [3H]epibatidine from wild type Aplysia californica AchBP expressed in HEK293S cells by scintillation proximity assay.
The nature of experiment [15]: Displacement of [3H]epibatidine from Aplysia californica AchBP V108M, M116L mutant expressed in HEK293S cells by scintillation proximity assay.
Experiment [16] in a line: Displacement of [3H]epibatidine from Aplysia californica AchBP I118M, M116L mutant expressed in HEK293S cells by scintillation proximity assay.
Experiment [17] in a line: Displacement of [3H]epibatidine from Aplysia californica AchBP S114M, M116L, Y195F mutant expressed in HEK293S cells by scintillation proximity assay.
Experiment [18] is described as follows: Displacement of [3H]epibatidine from Aplysia californica AchBP I106M, M116L, Y195F mutant expressed in HEK293S cells by scintillation proximity assay.
Experiment [19] can be described thus: Displacement of [3H]epibatidine from Aplysia californica AchBP I118M mutant expressed in HEK293S cells by scintillation proximity assay.
Experiment [20] can be described thus: Displacement of [3H]epibatidine from Aplysia californica AchBP M116Y, Y195F mutant expressed in HEK293S cells by scintillation proximity assay.

The Kd is the free concentration of one partner at which half of the binding sites on the other are occupied at equilibrium, for simple one-to-one binding. Low values mean a tighter complex, high ones a looser complex.

For the compound `N#C/N=c1\sccn1Cc1cnc(Cl)c(N=[N+]=[N-])c1`, the Kd in experiment [1] stood at 1.6 nM; in experiment [2], 0.17 nM; in experiment [3], 2 nM; in experiment [4], 1.1 nM; in experiment [5] it was 3 nM; in experiment [6] it was 2.3 nM. For the same compound, the Kd was found to be 172 nM in [7]; 17 nM in [8]; 3 nM in [9]; 3.2 nM in experiment [10]; 27 nM in [11]; 3 nM in experiment [12]. The dissociation constant Kd in experiment [13] was 9.6 nM; in experiment [14], 1.7 nM; in [15], 0.46 nM; in experiment [16], 68 nM; in [17], 7.2 nM; in [18], 5.5 nM. Besides, the Kd stood at 70 nM in [19] and 19 nM in [20].

In the case of `[N-]=[N+]=Nc1cc(C2CC3CCC2N3)cnc1Cl` (stereo not given) [AZIDOEPIBATIDINE], the Kd in [1] amounted to 8.1 nM; in [2], 0.33 nM; in experiment [3], 12 nM; in experiment [4], 1.5 nM; in experiment [5] it was 10 nM; in [6], 8.6 nM. Moreover, the Kd in [7] stood at 12 nM; in [8], 37 nM; in experiment [9], 7.2 nM; in experiment [10], 30 nM; in experiment [11], 34 nM; in [12], 15 nM. Besides, the Kd in experiment [13] turned out to be 21 nM; in experiment [14], 10 nM; in experiment [15] it was 0.58 nM; in experiment [16] it was 4.8 nM; in experiment [17], 19 nM; in [18] it was 22 nM. Besides, the Kd in experiment [19] came out at 4.5 nM; in experiment [20] it was 67 nM.

In the case of `N#C/N=c1\sccn1Cc1ccc(Cl)nc1` [THIACLOPRID OLEFIN], the Kd was determined as 3 nM in experiment [1]; 1.8 nM in [2]; 6.2 nM in experiment [3]; 9.2 nM in experiment [4]; 4.7 nM in experiment [5]; 3.1 nM in experiment [6]. In addition, the Kd in experiment [7] came to 247 nM; in experiment [8], 20 nM; in experiment [9], 4 nM; in experiment [10] it was 4.3 nM; in [11], 144 nM; in [12] it was 5.6 nM. Further, the Kd in experiment [13] is 11 nM; in [14], 2.8 nM; in [15] it was 4.8 nM; in [16] it was 299 nM; in [17], 13 nM; in experiment [18], 4.9 nM. The Kd was determined as 239 nM in experiment [19] and 60 nM in experiment [20].

Source of the values: ChEMBL document CHEMBL1136964, “Nicotinic agonist binding site mapped by methionine- and tyrosine-scanning coupled with azidochloropyridinyl photoaffinity labeling” (J Med Chem, 2009).
